Measurements published in article PMC9090415, “Discovery of small molecule inhibitors of Plasmodium falciparum apicoplast DNA polymerase” (Journal of Enzyme Inhibition and Medicinal Chemistry, 2022).

Target: P. falciparum apicoplast DNA polymerase (Pf-apPOL) (Plasmodium falciparum, UniProt Q8ILY1)
Assay: Fluorescence-based high-throughput DNA polymerase assay (molecular beacon), primary screen and dose-response;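 on % inhibition ApPOL 90': test concentration in µM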;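 on % inhibition apPOL 180': test concentration in µM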
Type: biochemical
Conditions: for DNA Pol: 90 min, 10 µM
In short: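 Single-point screening used 10 µM compound with 20 nM polymerase, 20 nM hairpin substrate and 6 µM dNTPs for 90 min at 25 °C. Confirmatory titrations (2.5–80 µM) followed fluorescence at three times, and IC50 was derived from a fit including a cooperativity term n.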

[1] = 'DNA Pol', screening value, unit not given
[2] = primary screen hit value, DNA Pol (186 hits)

Chain of P. falciparum apicoplast DNA polymerase (Pf-apPOL) (Q8ILY1 entry or part of it): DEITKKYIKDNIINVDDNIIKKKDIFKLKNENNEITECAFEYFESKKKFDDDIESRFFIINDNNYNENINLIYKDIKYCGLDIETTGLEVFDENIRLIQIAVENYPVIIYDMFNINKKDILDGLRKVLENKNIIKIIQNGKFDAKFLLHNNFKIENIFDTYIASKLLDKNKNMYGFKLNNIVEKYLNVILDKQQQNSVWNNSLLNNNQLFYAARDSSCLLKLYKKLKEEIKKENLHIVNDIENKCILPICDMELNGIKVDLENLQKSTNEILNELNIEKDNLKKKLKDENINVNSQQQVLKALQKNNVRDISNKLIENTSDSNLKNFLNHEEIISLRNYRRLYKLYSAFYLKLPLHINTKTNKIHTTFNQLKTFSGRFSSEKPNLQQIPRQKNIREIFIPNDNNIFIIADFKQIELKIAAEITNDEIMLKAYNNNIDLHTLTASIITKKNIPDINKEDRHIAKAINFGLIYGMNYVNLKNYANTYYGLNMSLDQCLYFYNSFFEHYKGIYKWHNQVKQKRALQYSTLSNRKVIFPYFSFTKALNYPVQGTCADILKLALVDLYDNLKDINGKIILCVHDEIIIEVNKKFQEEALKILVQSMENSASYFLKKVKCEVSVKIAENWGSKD

Q: For `CCSc1nnc(NC(=O)Cc2csc(NC(=O)c3cnccn3)n2)s1` [Molecule 79, CCSc1nnc(s1)NC(=O)Cc1csc(n1)NC(=O)c1cnccn1], which “DNA Pol” value [1] is on record?
A: 44

Q: What about the “% inhibition Apo pol 10'” value (DRC-1, concentration 2.5) of the same compound?
A: -4.905%

Q: And the “% inhibition Apo pol 10'” value (DRC-1, concentration 5)?
A: -2.236%

Q: What about the “% inhibition Apo pol 10'” value (DRC-1, concentration 10) of the same compound?
A: 11.7558%

Q: And the “% inhibition Apo pol 10'” value (DRC-1, concentration 20)?
A: 21.8429%

Q: And the “% inhibition Apo pol 10'” value (DRC-1, concentration 40)?
A: 42.6087%

Q: What about the “% inhibition Apo pol 10'” value (DRC-1, concentration 80) of the same compound?
A: 77.5256%

Q: And the “% inhibition Apol 90'” value (DRC-1, 90', concentration 2.5)?
A: -9.3965%

Q: What about the “% inhibition Apol 90'” value (DRC-1, 90', concentration 5) of the same compound?
A: -9.701%

Q: What about the “% inhibition Apol 90'” value (DRC-1, 90', concentration 10) of the same compound?
A: -1.729%

Q: What about the “% inhibition Apol 90'” value (DRC-1, 90', concentration 20) of the same compound?
A: 6.401%

Q: What about the “% inhibition Apol 90'” value (DRC-1, 90', concentration 40) of the same compound?
A: 23.3518%

Q: And the “% inhibition Apol 90'” value (DRC-1, 90', concentration 80)?
A: 61.199%

Q: And the “% inhibition apPOL 180'” value (DRC-1, 180', concentration 2.5)?
A: -15.2579%

Q: What about the “% inhibition apPOL 180'” value (DRC-1, 180', concentration 5) of the same compound?
A: -16.9778%

Q: What about the “% inhibition apPOL 180'” value (DRC-1, 180', concentration 10) of the same compound?
A: -10.4775%

Q: And the “% inhibition apPOL 180'” value (DRC-1, 180', concentration 20)?
A: -5.476%

Q: And the “% inhibition apPOL 180'” value (DRC-1, 180', concentration 40)?
A: 8.736%

Q: And the “% inhibition apPOL 180'” value (DRC-1, 180', concentration 80)?
A: 42.542%

Q: And the “% inhibition Apo pol 5'” value (DRC-2, 5', concentration 2.5)?
A: 1.36%

Q: And the “% inhibition Apo pol 5'” value (DRC-2, 5', concentration 5)?
A: 13%

Q: What about the “% inhibition Apo pol 5'” value (DRC-2, 5', concentration 10) of the same compound?
A: 30%

Q: What about the “% inhibition Apo pol 5'” value (DRC-2, 5', concentration 20) of the same compound?
A: 43%

Q: And the “% inhibition Apo pol 5'” value (DRC-2, 5', concentration 40)?
A: 55%

Q: What about the “% inhibition Apo pol 5'” value (DRC-2, 5', concentration 80) of the same compound?
A: 62%

Q: And the “% inhibition Apol 40'” value (DRC-2, 40', concentration 2.5)?
A: -2.42%

Q: And the “% inhibition Apol 40'” value (DRC-2, 40', concentration 5)?
A: 7%

Q: What about the “% inhibition Apol 40'” value (DRC-2, 40', concentration 10) of the same compound?
A: 25%

Q: What about the “% inhibition Apol 40'” value (DRC-2, 40', concentration 20) of the same compound?
A: 40%

Q: What about the “% inhibition Apol 40'” value (DRC-2, 40', concentration 40) of the same compound?
A: 62%

Q: What about the “% inhibition Apol 40'” value (DRC-2, 40', concentration 80) of the same compound?
A: 76%

Q: What about the “% inhibition ApPOL 90'” value (DRC-2, 90', concentration 2.5) of the same compound?
A: -4.46%

Q: What about the “% inhibition ApPOL 90'” value (DRC-2, 90', concentration 5) of the same compound?
A: 5%

Q: What about the “% inhibition ApPOL 90'” value (DRC-2, 90', concentration 10) of the same compound?
A: 22%

Q: And the “% inhibition ApPOL 90'” value (DRC-2, 90', concentration 20)?
A: 35%

Q: And the “% inhibition ApPOL 90'” value (DRC-2, 90', concentration 40)?
A: 62%

Q: And the “% inhibition ApPOL 90'” value (DRC-2, 90', concentration 80)?
A: 79%

Q: What about the “% inhibition apPOL 180'” value (DRC-2, 180', concentration 2.5) of the same compound?
A: -6%

Q: And the “% inhibition apPOL 180'” value (DRC-2, 180', concentration 5)?
A: 1.68%

Q: And the “% inhibition apPOL 180'” value (DRC-2, 180', concentration 10)?
A: 14%

Q: And the “% inhibition apPOL 180'” value (DRC-2, 180', concentration 20)?
A: 26%

Q: What about the “% inhibition apPOL 180'” value (DRC-2, 180', concentration 40) of the same compound?
A: 59%

Q: What about the “% inhibition apPOL 180'” value (DRC-2, 180', concentration 80) of the same compound?
A: 81%

Q: And the “% inhibition Apol 40'” value (conc 40 (unit not given), 40', DRC-2)?
A: 62%

Q: And the “% inhibition ApPOL 90'” value (conc 40 (unit not given), 90', DRC-2)?
A: 62%

Q: And the “% inhibition Apo pol 5'” value (conc 80 (unit not given), 5', DRC-2)?
A: 62%

Q: And the “DNA Pol” value [2]?
A: 44

Q: For `COc1ccc2c(c1)CCc1c-2nc2ccc(Br)cc2c1C(=O)O` [KU0059417], which “DNA Pol” value [1] is on record?
A: 29

Q: What about the “% inhibition Apo pol 10'” value (DRC-1, concentration 2.5) of the same compound?
A: 25.2919%

Q: What about the “% inhibition Apo pol 10'” value (DRC-1, concentration 5) of the same compound?
A: 33.9692%

Q: And the “% inhibition Apo pol 10'” value (DRC-1, concentration 10)?
A: 45.4557%

Q: And the “% inhibition Apo pol 10'” value (DRC-1, concentration 20)?
A: 55.4931%

Q: And the “% inhibition Apo pol 10'” value (DRC-1, concentration 40)?
A: 69.0477%

Q: What about the “% inhibition Apo pol 10'” value (DRC-1, concentration 80) of the same compound?
A: 75.6745%

Q: And the “% inhibition Apol 90'” value (DRC-1, 90', concentration 2.5)?
A: 11.1508%

Q: What about the “% inhibition Apol 90'” value (DRC-1, 90', concentration 5) of the same compound?
A: 18.7068%

Q: And the “% inhibition Apol 90'” value (DRC-1, 90', concentration 10)?
A: 30.3823%

Q: What about the “% inhibition Apol 90'” value (DRC-1, 90', concentration 20) of the same compound?
A: 41.2946%

Q: What about the “% inhibition Apol 90'” value (DRC-1, 90', concentration 40) of the same compound?
A: 54.5207%

Q: What about the “% inhibition Apol 90'” value (DRC-1, 90', concentration 80) of the same compound?
A: 62.4129%

Q: And the “% inhibition apPOL 180'” value (DRC-1, 180', concentration 2.5)?
A: 3.289%

Q: What about the “% inhibition apPOL 180'” value (DRC-1, 180', concentration 5) of the same compound?
A: 10.0066%

Q: And the “% inhibition apPOL 180'” value (DRC-1, 180', concentration 10)?
A: 20.2825%

Q: What about the “% inhibition apPOL 180'” value (DRC-1, 180', concentration 20) of the same compound?
A: 30.8503%

Q: And the “% inhibition apPOL 180'” value (DRC-1, 180', concentration 40)?
A: 43.5885%

Q: And the “% inhibition apPOL 180'” value (DRC-1, 180', concentration 80)?
A: 50.0867%

Q: What about the “% inhibition Apo pol 5'” value (DRC-2, 5', concentration 2.5) of the same compound?
A: 21%

Q: And the “% inhibition Apo pol 5'” value (DRC-2, 5', concentration 5)?
A: 27%

Q: And the “% inhibition Apo pol 5'” value (DRC-2, 5', concentration 10)?
A: 34%

Q: What about the “% inhibition Apo pol 5'” value (DRC-2, 5', concentration 20) of the same compound?
A: 40%

Q: What about the “% inhibition Apo pol 5'” value (DRC-2, 5', concentration 40) of the same compound?
A: 53%

Q: What about the “% inhibition Apo pol 5'” value (DRC-2, 5', concentration 80) of the same compound?
A: 60%

Q: And the “% inhibition Apol 40'” value (DRC-2, 40', concentration 2.5)?
A: 17%

Q: What about the “% inhibition Apol 40'” value (DRC-2, 40', concentration 5) of the same compound?
A: 24%

Q: What about the “% inhibition Apol 40'” value (DRC-2, 40', concentration 10) of the same compound?
A: 33%

Q: What about the “% inhibition Apol 40'” value (DRC-2, 40', concentration 20) of the same compound?
A: 39%

Q: And the “% inhibition Apol 40'” value (DRC-2, 40', concentration 40)?
A: 54%

Q: What about the “% inhibition Apol 40'” value (DRC-2, 40', concentration 80) of the same compound?
A: 68%

Q: What about the “% inhibition ApPOL 90'” value (DRC-2, 90', concentration 2.5) of the same compound?
A: 15%

Q: What about the “% inhibition ApPOL 90'” value (DRC-2, 90', concentration 5) of the same compound?
A: 22%

Q: What about the “% inhibition ApPOL 90'” value (DRC-2, 90', concentration 10) of the same compound?
A: 31%

Q: What about the “% inhibition ApPOL 90'” value (DRC-2, 90', concentration 20) of the same compound?
A: 37%

Q: And the “% inhibition ApPOL 90'” value (DRC-2, 90', concentration 40)?
A: 52%

Q: And the “% inhibition ApPOL 90'” value (DRC-2, 90', concentration 80)?
A: 69%

Q: What about the “% inhibition apPOL 180'” value (DRC-2, 180', concentration 2.5) of the same compound?
A: 7%

Q: What about the “% inhibition apPOL 180'” value (DRC-2, 180', concentration 5) of the same compound?
A: 13%

Q: What about the “% inhibition apPOL 180'” value (DRC-2, 180', concentration 10) of the same compound?
A: 20%

Q: And the “% inhibition apPOL 180'” value (DRC-2, 180', concentration 20)?
A: 25%

Q: And the “% inhibition apPOL 180'” value (DRC-2, 180', concentration 40)?
A: 42%

Q: What about the “% inhibition apPOL 180'” value (DRC-2, 180', concentration 80) of the same compound?
A: 64%

Q: What about the “DNA Pol” value [2] of the same compound?
A: 29
